Source: ChEMBL document CHEMBL1147148, “Cytotoxic withanolides from Tubocapsicum anomalum” (J Nat Prod, 2007)
In brackets after ≈: the same amount, converted by molar mass.

Experiments:
HepG2 = assay: Cytotoxicity against human HepG2 cells by MTT method; assay type: cell-based
MCF7 = assay: Cytotoxicity against human MCF7 cells by MTT method; assay type: cell-based
[1] = Cytotoxicity against human Hep3B cells by MTT method; assay type: cell-based, Hep 3B2
MDA-MB-231 = assay: Cytotoxicity against human MDA-MB-231 cells by MTT method; assay type: cell-based
MRC5 = assay: Cytotoxicity against human MRC5 cells by MTT method; assay type: cell-based
A549 = assay: Cytotoxicity against human A549 cells by MTT method; assay type: cell-based

Structure (SMILES) | IC50 (HepG2) [µg/mL] | IC50 (MCF7) [µg/mL] | IC50 [1] [µg/mL] | IC50 (MDA-MB-231) [µg/mL] | IC50 (MRC5) [µg/mL] | IC50 (A549) [µg/mL]
CC1=C(C)C(=O)O[C@@H]([C@@H](C)[C@@]2(O)CC[C@H]3[C@@H]4C[C@H]5O[C@]56[C@@H](O)C=CC(=O)[C@]6(C)[C@H]4CC[C@@]32C)C1 | 0.64 (≈ 1.36 µM) | 1.98 (≈ 4.21 µM) | 0.8 (≈ 1.7 µM) | 0.99 (≈ 2.1 µM) | 0.81 (≈ 1.72 µM) | 0.88 (≈ 1.87 µM)
CC1=C(C)C(=O)O[C@@H]([C@](C)(O)[C@@]2(O)CC[C@H]3[C@@H]4C[C@H]5O[C@]56[C@@H](O)C=CC(=O)[C@]6(C)[C@H]4CC[C@@]32C)C1 | 0.49 (≈ 1.01 µM) | 1.45 (≈ 2.98 µM) | 0.85 (≈ 1.75 µM) | 0.71 (≈ 1.46 µM) | 1.89 (≈ 3.88 µM) | 0.72 (≈ 1.48 µM)
CC1=C(C)C(=O)O[C@@H]([C@@H](C)[C@@]2(O)CC[C@H]3[C@@H]4C[C@H](O)[C@]5(O)[C@@H](O)C=CC(=O)[C@]5(C)[C@H]4CC[C@@]32C)C1 | > 20 | > 20 | 7.19 (≈ 14.7 µM) | 13.5 (≈ 27.6 µM) | – | 8.01 (≈ 16.4 µM)
CC1=C(C)C(=O)O[C@@H]([C@](C)(O)[C@@]23O[C@@H]2C[C@H]2[C@@H]4C[C@H]5O[C@]56[C@@H](O)C=CC(=O)[C@]6(C)[C@H]4CC[C@@]23C)C1 [20-HYDROXYTUBOCAPSANOLIDE A] | 0.73 (≈ 1.51 µM) | 1.77 (≈ 3.65 µM) | 0.99 (≈ 2.04 µM) | 0.99 (≈ 2.04 µM) | 1.36 (≈ 2.81 µM) | 1.42 (≈ 2.93 µM)
CC1=C(C)[C@H](O)[C@H]([C@@H](C)[C@@]23O[C@@H]2C[C@H]2[C@@H]4C[C@H]5O[C@]56[C@@H](O)C=CC(=O)[C@]6(C)[C@H]4CC[C@@]23C)OC1=O [23-HYDROXYTUBOCAPSANOLIDE A] | 0.44 (≈ 0.908 µM) | 2.05 (≈ 4.23 µM) | 0.49 (≈ 1.01 µM) | 1.19 (≈ 2.46 µM) | 0.9 (≈ 1.86 µM) | 0.79 (≈ 1.63 µM)
C[C@@]12CC([C@@]3(O)CC[C@H]4[C@@H]5C[C@H]6O[C@]67[C@@H](O)C=CC(=O)[C@]7(C)[C@H]5CC[C@@]43C)[C@@H](C1)OC(=O)[C@]2(C)O (stereo partly drawn) [ANOMANOLIDE A] | 3.11 (≈ 6.39 µM) | 2.31 (≈ 4.75 µM) | 3.63 (≈ 7.46 µM) | 1.37 (≈ 2.82 µM) | 1.91 (≈ 3.93 µM) | 1.01 (≈ 2.08 µM)
C[C@@]12CC([C@@]3(O)CC[C@H]4[C@@H]5C[C@H](O)[C@]6(O)[C@@H](O)C=CC(=O)[C@]6(C)[C@H]5CC[C@@]43C)[C@@H](C1)OC(=O)[C@]2(C)O (stereo partly drawn) [ANOMANOLIDE B] | 0.97 (≈ 1.92 µM) | 4.84 (≈ 9.59 µM) | 3.17 (≈ 6.28 µM) | 0.7 (≈ 1.39 µM) | 0.2 (≈ 0.396 µM) | 1.49 (≈ 2.95 µM)
C[C@@]12CC([C@@]3(O)[C@H](O)C[C@H]4[C@@H]5C[C@H]6O[C@]67[C@@H](O)C=CC(=O)[C@]7(C)[C@H]5CC[C@@]43C)[C@@H](C1)OC(=O)[C@]2(C)O (stereo partly drawn) [ANOMANOLIDE C] | 4.41 (≈ 8.77 µM) | 8.01 (≈ 15.9 µM) | 1.85 (≈ 3.68 µM) | 1.58 (≈ 3.14 µM) | – | 2.8 (≈ 5.57 µM)
C[C@@]12CC([C@@]3(O)[C@H](O)C[C@H]4[C@@H]5C[C@H](Cl)[C@]6(O)[C@@H](O)C=CC(=O)[C@]6(C)[C@H]5CC[C@@]43C)[C@@H](C1)OC(=O)[C@]2(C)O (stereo partly drawn) [ANOMANOLIDE D] | > 20 | > 20 | 19 (≈ 35.3 µM) | > 20 | – | > 20
C[C@@]12CC([C@@]3(O)[C@H](O)C[C@H]4[C@@H]5C[C@H](O)[C@]6(O)CC=CC(=O)[C@]6(C)[C@H]5CC[C@@]43C)[C@@H](C1)OC(=O)[C@]2(C)O (stereo partly drawn) [ANOMANOLIDE E] | > 20 | > 20 | > 20 | > 20 | – | > 20
C[C@@]12CC([C@@]3(O)[C@H](O)C[C@H]4[C@@H]5CC[C@]6(O)[C@@H](O)C=CC(=O)[C@]6(C)[C@H]5CC[C@@]43C)[C@@H](C1)OC(=O)[C@]2(C)O (stereo partly drawn) [ANOMANOLIDE F] | > 20 | > 20 | > 20 | > 20 | – | > 20
COc1cccc2c1C(=O)c1c(O)c3c(c(O)c1C2=O)C[C@@](O)(C(=O)CO)C[C@@H]3O[C@H]1C[C@H](N)[C@H](O)[C@H](C)O1 [DOXORUBICIN] | 0.46 (≈ 0.846 µM) | – | 0.45 (≈ 0.828 µM) | 0.19 (≈ 0.35 µM) | 0.77 (≈ 1.42 µM) | 0.42 (≈ 0.773 µM)
CC1=C(C)C(=O)O[C@@H]([C@@H](C)[C@@]23O[C@@H]2C[C@H]2[C@@H]4C[C@H]5O[C@]56[C@@H](O)C=CC(=O)[C@]6(C)[C@H]4CC[C@@]23C)C1 [TUBOCAPSANOLIDE A] | 0.86 (≈ 1.84 µM) | 1.47 (≈ 3.14 µM) | 0.42 (≈ 0.896 µM) | 0.22 (≈ 0.469 µM) | 0.73 (≈ 1.56 µM) | 0.47 (≈ 1 µM)
CC1=C(C)C(=O)O[C@@H]([C@@H](C)[C@@]2(C)C3=C(C[C@H]2O)[C@@H]2C[C@H](O)[C@]4(O)[C@@H](O)C=CC(=O)[C@]4(C)[C@H]2CC3)C1 [TUBOCAPSENOLIDE F] | > 20 | 14.7 (≈ 30.2 µM) | 15.1 (≈ 31 µM) | 8.41 (≈ 17.3 µM) | – | 6.04 (≈ 12.4 µM)
CC1=C(C)C(=O)O[C@@H]([C@@H](C)[C@@]2(C)C3=C(C[C@H]2O)[C@@H]2C[C@H](Cl)[C@]4(O)[C@@H](O)C=CC(=O)[C@]4(C)[C@H]2CC3)C1 [TUBOCAPSENOLIDE G] | 19.1 (≈ 37.9 µM) | > 20 | > 20 | > 20 | – | 19.9 (≈ 39.5 µM)
C[C@]1(O)C[C@H]2OC(=O)[C@]1(C)C[C@H]2[C@@]1(O)[C@H](O)C[C@H]2[C@@H]3C[C@H](Cl)[C@]4(O)[C@@H](O)C=CC(=O)[C@]4(C)[C@H]3CC[C@@]21C [TUBONOLIDE A] | 5.09 (≈ 9.44 µM) | 12 (≈ 22.3 µM) | 6.54 (≈ 12.1 µM) | > 20 | – | 5.91 (≈ 11 µM)
CC1=C(CO)C(=O)O[C@@H]([C@@H](C)[C@H]2CC[C@H]3[C@@H]4C[C@H]5O[C@]56[C@@H](O)C=CC(=O)[C@]6(C)[C@H]4CC[C@]23C)C1 [WITHAFERIN A] | 0.06 (≈ 0.127 µM) | 0.05 (≈ 0.106 µM) | 0.06 (≈ 0.127 µM) | 0.02 (≈ 0.0425 µM) | 0.07 (≈ 0.149 µM) | 0.02 (≈ 0.0425 µM)
